Measured values as given in US20160185774A1, “Anti-Infective Compounds” (priority 2013, published 2016).
≈ marks a conversion by molar mass, not a printed value.

system: M. tuberculosis; assay: microbe, parasite or virus in culture; type: cell-based; conditions: Mycobacterium tuberculosis, 120 h; read-out: QUM (MIC80)

| Structure (SMILES) | MIC80 [µM] |
| --- | --- |
| CCc1nc2ccc(Br)cn2c1C(=O)NCc1ccc(N2CCC(c3ccccc3)CC2)cc1 [Compound 1] | < 1 |
| CCc1nc2ccc(Br)cn2c1C(=O)NCc1ccc(N2CCC(c3ccc(OC)cc3)CC2)cc1 [Compound 2] | < 1 |
| CCc1nc2cc(C(F)(F)F)ccn2c1C(=O)NCc1ccc(N2CCC(c3ccccc3)CC2)cc1 [Compound 3] | < 1 |
| CCc1nc2cc(C(F)(F)F)ccn2c1C(=O)NCc1ccc(N2CCC(c3ccc(F)cc3)CC2)cc1 [Compound 4] | < 1 |
| CCc1nc2cc(F)ccn2c1C(=O)NCc1ccc(N2CCC(c3ccc(C)cc3)CC2)cc1 [Compound 5] | < 1 |
| CCc1nc2c(F)cccn2c1C(=O)NCc1ccc(N2CCC(c3ccc(C)cc3)CC2)cc1 [Compound 6] | < 1 |
| CCc1nc2ccc(Cl)cn2c1C(=O)NCc1ccc(N2CCC(c3ccc(C)cc3)CC2)cc1 [Compound 7] | < 1 |
| CCc1nc2c(C)cccn2c1C(=O)NCc1ccc(N2CCC(c3ccc(OC)cc3)CC2)cc1 [Compound 8] | < 1 |
| CCc1nc2ccc(C)cn2c1C(=O)NCc1ccc(N2CCN(c3ccccc3)CC2)cc1 [Compound 9] | < 1 |
| CCc1nc2cc(OC)ccn2c1C(=O)NCc1ccc(N2CCN(c3ccc(OC(F)(F)F)cc3)CC2)cc1 [Compound 10] | < 1 |
| CCc1nc2ccc(F)cn2c1C(=O)NCc1ccc(N2CCC(c3ccc(C(F)(F)F)cc3)CC2)cc1 [Compound 11] | < 1 |
| CCc1nc2c(F)cccn2c1C(=O)NCc1ccc(N2CCC(c3ccc(C(F)(F)F)cc3)CC2)cc1 [Compound 12] | < 1 |
| CCc1nc2cc(Cl)ccn2c1C(=O)NCc1ccc(N2CCC(c3ccc(C(F)(F)F)cc3)CC2)cc1 [Compound 13] | < 1 |
| CCc1nc2cc(F)ccn2c1C(=O)NCc1ccc(N2CCC(c3ccc(OC)cc3)CC2)cc1 [Compound 14] | < 1 |
| CCc1nc2c(F)cccn2c1C(=O)NCc1ccc(N2CCC(c3ccc(OC)cc3)CC2)cc1 [Compound 15] | < 1 |
| CCc1nc2ccc(Cl)cn2c1C(=O)NCc1ccc(N2CCC(c3ccc(OC)cc3)CC2)cc1 [Compound 16] | < 1 |
| CCc1nc2cc(F)ccn2c1C(=O)NCc1ccc(N2CCC(c3ccc(Cl)cc3)CC2)cc1 [Compound 17] | < 1 |
| CCc1nc2cc(OC)ccn2c1C(=O)NCc1ccc(N2CCC(c3ccccc3)CC2)cc1 [Compound 18] | < 1 |
| CCc1nc2ccc(C)cn2c1C(=O)NCc1ccc(N2CCC(c3ccc(F)cc3)CC2)cc1 [Compound 19] | < 1 |
| CCc1nc2cc(OC)ccn2c1C(=O)NCc1ccc(N2CCC(c3ccc(F)cc3)CC2)cc1 [Compound 20] | < 1 |
| CCc1nc2cc(OC)ccn2c1C(=O)NCc1ccc(N2CCC(c3ccc(Cl)cc3)CC2)cc1 [Compound 21] | < 1 |
| CCc1nc2c(C(F)(F)F)cccn2c1C(=O)NCc1ccc(N2CCC(c3ccc(Cl)cc3)CC2)cc1 [Compound 22] | 1 to 20 (≈ 0.541 to 10.8 µg/mL) |
| CCc1nc2cc(OC)ccn2c1C(=O)NCc1ccc(N2CCC(c3ccc(C)cc3)CC2)cc1 [Compound 23] | < 1 |
| CCc1nc2cc(C(F)(F)F)ccn2c1C(=O)NCc1ccc(N2CCC(c3ccc(C)cc3)CC2)cc1 [Compound 24] | < 1 |
| CCc1nc2c(C(F)(F)F)cccn2c1C(=O)NCc1ccc(N2CCC(c3ccc(C)cc3)CC2)cc1 [Compound 25] | 1 to 20 (≈ 0.521 to 10.4 µg/mL) |
| CCc1nc2cc(C(F)(F)F)ccn2c1C(=O)NCc1ccc(N2CCC(c3ccc(C(F)(F)F)cc3)CC2)cc1 [Compound 26] | < 1 |
| CCc1nc2c(C(F)(F)F)cccn2c1C(=O)NCc1ccc(N2CCC(c3ccc(OC)cc3)CC2)cc1 [Compound 27] | 1 to 20 (≈ 0.537 to 10.7 µg/mL) |
| CCc1nc2ccccn2c1C(=O)NCc1ccc(N2CCN(c3ccc(C)cc3)CC2)cc1 [Compound 28] | < 1 |

| Structure (SMILES) | MIC80 [µM] |
| --- | --- |
| CCc1nc2ccccn2c1C(=O)NCc1ccc(N2CCN(c3ccc(C(F)(F)F)cc3)CC2)cc1 [Compound 29] | < 1 |
| CCc1nc2ccccn2c1C(=O)NCc1ccc(N2CCN(c3ccc(OC)cc3)CC2)cc1 [Compound 30] | < 1 |
| CCc1nc2c(F)cccn2c1C(=O)NCc1ccc(N2CCN(c3ccc(C)cc3)CC2)cc1 [Compound 31] | < 1 |
| CCc1nc2c(F)cccn2c1C(=O)NCc1ccc(N2CCN(c3ccc(OC)cc3)CC2)cc1 [Compound 32] | < 1 |
| CCc1nc2ccc(Cl)cn2c1C(=O)NCc1ccc(N2CCN(c3ccc(OC)cc3)CC2)cc1 [Compound 33] | < 1 |
| CCc1nc2c(Br)cccn2c1C(=O)NCc1ccc(N2CCC(c3ccc(C)cc3)CC2)cc1 [Compound 34] | 1 to 20 (≈ 0.531 to 10.6 µg/mL) |
| CCc1nc2cc(Cl)ccn2c1C(=O)NCc1ccc(N2CCN(c3ccc(C)cc3)CC2)cc1 [Compound 35] | < 1 |
| CCc1nc2ccc(Cl)cn2c1C(=O)NCc1ccc(N2CCN(c3ccc(C)cc3)CC2)cc1 [Compound 36] | < 1 |
| CCc1nc2ccccn2c1C(=O)NCc1ccc(N2CCN(c3ccc(Cl)cc3)CC2)cc1 [Compound 37] | < 1 |
| CCc1nc2c(C)cccn2c1C(=O)NCc1ccc(N2CCN(c3ccc(OC)cc3)CC2)cc1 [Compound 38] | < 1 |
| CCc1nc2c(C)cccn2c1C(=O)NCc1ccc(N2CCN(c3ccc(C)cc3)CC2)cc1 [Compound 39] | < 1 |
| CCc1nc2c(C)cccn2c1C(=O)NCc1ccc(N2CCN(c3ccc(C(F)(F)F)cc3)CC2)cc1 [Compound 40] | < 1 |
| CCc1nc2c(C)cccn2c1C(=O)NCc1ccc(N2CCN(c3ccccc3)CC2)cc1 [Compound 41] | < 1 |
| CCc1nc2ccc(F)cn2c1C(=O)NCc1ccc(N2CCN(c3ccc(OC(F)(F)F)cc3)CC2)cc1 [Compound 42] | < 1 |
| CCc1nc2c(C)cccn2c1C(=O)NCc1ccc(N2CCN(c3ccc(Cl)cc3)CC2)cc1 [Compound 43] | < 1 |
| CCc1nc2c(C)cccn2c1C(=O)NCc1ccc(N2CCN(c3ccc(OC(F)(F)F)cc3)CC2)cc1 [Compound 44] | < 1 |
| CCc1nc2ccc(Cl)cn2c1C(=O)NCc1ccc(N2CCN(c3ccc(Cl)cc3)CC2)cc1 [Compound 45] | < 1 |
| CCc1nc2cc(Cl)ccn2c1C(=O)NCc1ccc(N2CCN(c3ccc(OC)cc3)CC2)cc1 [Compound 46] | < 1 |
| CCc1nc2c(Cl)cccn2c1C(=O)NCc1ccc(N2CCN(c3ccc(Cl)cc3)CC2)cc1 [Compound 47] | < 1 |
| CCc1nc2ccc(Cl)cn2c1C(=O)NCc1ccc(N2CCN(c3ccc(C(F)(F)F)cc3)CC2)cc1 [Compound 48] | < 1 |
| CCc1nc2c(Cl)cccn2c1C(=O)NCc1ccc(N2CCN(c3ccc(C(F)(F)F)cc3)CC2)cc1 [Compound 49] | < 1 |
| CCc1nc2c(Cl)cccn2c1C(=O)NCc1ccc(N2CCN(c3ccc(OC)cc3)CC2)cc1 [Compound 50] | < 1 |
| CCc1nc2cc(C)ccn2c1C(=O)NCc1ccc(N2CCC(c3ccc(C(F)(F)F)cc3)CC2)cc1 [Compound 51] | < 1 |
| CCc1nc2cc(C)ccn2c1C(=O)NCc1ccc(N2CCC(c3ccc(Cl)cc3)CC2)cc1 [Compound 52] | < 1 |
| CCc1nc2c(Cl)cccn2c1C(=O)NCc1ccc(N2CCC(c3ccc(Cl)cc3)CC2)cc1 [Compound 53] | < 1 |
| CCc1nc2cc(C)ccn2c1C(=O)NCc1ccc(N2CCN(c3ccc(OC)cc3)CC2)cc1 [Compound 54] | < 1 |
| CCc1nc2ccc(C)cn2c1C(=O)NCc1ccc(N2CCN(c3ccc(OC(F)(F)F)cc3)CC2)cc1 [Compound 55] | < 1 |
